This experiment deals with L1210 leukemia ip in BDF1 mice, survival T/C. The experiment can be described thus: NCI In Vivo Anticancer Drug Screen. Data for tumor model L1210 Leukemia (intraperitoneal) in B6D2F1 (BDF1) mice. The note with it: endpoint: mean survival time, higher = longer survival. An outline of the steps:
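Survival endpoint. Drug-treated group vs vehicle group, expressed as T divided by C. Tumor passaged by transplantation.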

[1] abbreviates: dose: 100.0 mg/kg/injection, schedule: Q01DX001 (ip), vehicle: Klucel (hydroxypropylcellulose) (HPC).
[2] abbreviates: dose: 200.0 mg/kg/injection, schedule: Q01DX001 (ip), vehicle: Klucel (hydroxypropylcellulose) (HPC).
Setting [3] is: dose: 400.0 mg/kg/injection, schedule: Q01DX001 (ip), vehicle: Klucel (hydroxypropylcellulose) (HPC).
[4] abbreviates: dose: 100.0 mg/kg/injection, schedule: Q01DX009 (ip), vehicle: saline.

Inconclusive results and toxic doses are left out.

Turning to `COc1cc2c3c(c4ccc(O)cc4c2cc1OC)[C@@H](O)[C@@H]1CCCN1C3`, the T/C is 106 % of control (dose: 2.5 mg/kg/injection, schedule: Q01DX005 (ip), vehicle: water); 95 % of control (dose: 2.5 mg/kg/injection, schedule: Q01DX009 (ip), vehicle: water); 105 % of control (dose: 2.5 mg/kg/injection, schedule: Q01DX015 (ip), vehicle: water); 98 % of control (dose: 5.0 mg/kg/injection, schedule: Q01DX001 (ip), vehicle: water); 104 % of control (dose: 5.0 mg/kg/injection, schedule: Q01DX005 (ip), vehicle: water); 119 % of control (dose: 5.0 mg/kg/injection, schedule: Q01DX009 (ip), vehicle: water). Besides, the T/C (dose: 5.0 mg/kg/injection, schedule: Q01DX009 (sc), vehicle: water) is 109 % of control; the T/C (dose: 5.0 mg/kg/injection, schedule: Q01DX015 (ip), vehicle: water) was 120 % of control; the T/C (dose: 5.0 mg/kg/injection, schedule: Q02DX005 (ip), vehicle: water) is 114 % of control; the T/C (dose: 5.0 mg/kg/injection, schedule: Q## X003 (ip), vehicle: water) was 111 % of control; the T/C (dose: 6.0 mg/kg/injection, schedule: Q01DX Z (ip), vehicle: water) is 124 % of control; the T/C (dose: 6.7 mg/kg/injection, schedule: Q01DX015 (ip), vehicle: water) is 112 % of control. Also, the T/C runs as follows: (dose: 7.1 mg/kg/injection, schedule: Q01DX015 (ip), vehicle: water) 112 % of control; (dose: 10.0 mg/kg/injection, schedule: Q01DX001 (ip), vehicle: water) 108 % of control; (dose: 10.0 mg/kg/injection, schedule: Q01DX005 (ip), vehicle: water) 109 % of control; (dose: 10.0 mg/kg/injection, schedule: Q01DX009 (ip), vehicle: water) 119 % of control; (dose: 10.0 mg/kg/injection, schedule: Q01DX009 (oral), vehicle: water) 114 % of control; (dose: 10.0 mg/kg/injection, schedule: Q01DX009 (sc), vehicle: water) 122 % of control. In addition, the T/C (dose: 10.0 mg/kg/injection, schedule: Q01DX015 (ip), vehicle: water) is 112 % of control; the T/C (dose: 10.0 mg/kg/injection, schedule: Q## X003 (ip), vehicle: water) is 101 % of control; the T/C (dose: 12.0 mg/kg/injection, schedule: Q01DX Z (ip), vehicle: water) is 151 % of control; the T/C (dose: 15.0 mg/kg/injection, schedule: Q01DX005 (ip), vehicle: water) was 117 % of control; the T/C (dose: 15.0 mg/kg/injection, schedule: Q01DX009 (ip), vehicle: water) is 120 % of control; the T/C (dose: 15.0 mg/kg/injection, schedule: Q01DX009 (sc), vehicle: water) is 119 % of control. Besides, the T/C (dose: 15.0 mg/kg/injection, schedule: Q01DX015 (ip), vehicle: water) was 109 % of control; the T/C (dose: 15.0 mg/kg/injection, schedule: Q02DX005 (ip), vehicle: water) is 124 % of control; the T/C (dose: 15.0 mg/kg/injection, schedule: Q## X003 (ip), vehicle: water) was 119 % of control; the T/C (dose: 20.0 mg/kg/injection, schedule: Q01DX001 (ip), vehicle: water) is 104 % of control; the T/C (dose: 20.0 mg/kg/injection, schedule: Q01DX009 (ip), vehicle: water) was 114 % of control; the T/C (dose: 20.0 mg/kg/injection, schedule: Q01DX009 (oral), vehicle: water) was 109 % of control. Moreover, the T/C is 88 % of control (dose: 20.0 mg/kg/injection, schedule: Q01DX009 (sc), vehicle: water); 110 % of control (dose: 20.0 mg/kg/injection, schedule: Q01DX Z (ip), vehicle: water); 117 % of control (dose: 20.0 mg/kg/injection, schedule: Q## X003 (ip), vehicle: water); 123 % of control (dose: 22.5 mg/kg/injection, schedule: Q01DX015 (ip), vehicle: water); 96 % of control (dose: 25.0 mg/kg/injection, schedule: Q01DX015 (ip), vehicle: water); 100 % of control (dose: 30.0 mg/kg/injection, schedule: Q01DX009 (oral), vehicle: water). In addition, the T/C (dose: 40.0 mg/kg/injection, schedule: Q01DX001 (ip), vehicle: water) was 114 % of control.

Regarding `O=C(O)c1ccc(Oc2ccc([N+](=O)[O-])cc2)cc1`, the T/C is 94 % of control under setting [1]; 102 % of control (dose: 100.0 mg/kg/injection, schedule: Q04DX003 (ip), vehicle: Klucel (hydroxypropylcellulose) (HPC)); 102 % of control under setting [2]; 92 % of control (dose: 200.0 mg/kg/injection, schedule: Q04DX003 (ip), vehicle: Klucel (hydroxypropylcellulose) (HPC)); 108 % of control under setting [3]; 96 % of control (dose: 400.0 mg/kg/injection, schedule: Q04DX003 (ip), vehicle: Klucel (hydroxypropylcellulose) (HPC)).

As to `NC(=O)NC(C(=O)O)(c1ccccc1)C1CCC1` (stereo not given), the T/C was 103 % of control (dose: 50.0 mg/kg/injection, schedule: Q01DX009 (ip), vehicle: saline with Tween-80); 94 % of control (dose: 100.0 mg/kg/injection, schedule: Q01DX009 (ip), vehicle: saline with Tween-80); 102 % of control (dose: 200.0 mg/kg/injection, schedule: Q01DX009 (ip), vehicle: saline with Tween-80); 107 % of control (dose: 400.0 mg/kg/injection, schedule: Q01DX009 (ip), vehicle: saline with Tween-80).

Take `CCCCCCC(CCC)CCCCCC`: the T/C is, setting by setting: (dose: 100.0 mg/kg/injection, schedule: Q04DX002 (ip), vehicle: saline with Tween-80) 98 % of control; (dose: 200.0 mg/kg/injection, schedule: Q04DX002 (ip), vehicle: saline with Tween-80) 104 % of control; (dose: 400.0 mg/kg/injection, schedule: Q04DX002 (ip), vehicle: saline with Tween-80) 98 % of control.

Turning to `O=c1ccn(C2SC(CO)C(O)C2O)c(=O)[nH]1` (stereo not given), the T/C was 108 % of control (dose: 50.0 mg/kg/injection, schedule: Q01DX001 (ip), vehicle: saline); 100 % of control (dose: 100.0 mg/kg/injection, schedule: Q01DX001 (ip), vehicle: saline); 88 % of control (dose: 200.0 mg/kg/injection, schedule: Q01DX001 (ip), vehicle: saline); 108 % of control (dose: 400.0 mg/kg/injection, schedule: Q01DX001 (ip), vehicle: saline).

For `O=C1NC2(CCCCCC2)C(=O)N1CN1CCOCC1`, the T/C under setting [1] was 98 % of control, the T/C under setting [2] was 101 % of control and the T/C under setting [3] is 104 % of control.

For the compound `COc1cc(OC)c(/C=C/c2cnc3ccccc3n2)c(OC)c1`, the T/C runs as follows: (dose: 3.13 mg/kg/injection, schedule: Q04DX002 (ip), vehicle: saline with Tween-80) 104 % of control; (dose: 6.25 mg/kg/injection, schedule: Q04DX002 (ip), vehicle: saline with Tween-80) 95 % of control; (dose: 12.5 mg/kg/injection, schedule: Q04DX002 (ip), vehicle: saline with Tween-80) 88 % of control; (dose: 50.0 mg/kg/injection, schedule: Q04DX002 (ip), vehicle: saline with Tween-80) 90 % of control.

For the compound `Cc1ccc(Nc2nc(N)nc(N)c2N)cc1`, the T/C (dose: 6.0 mg/kg/injection, schedule: Q01DX Z (ip), vehicle: saline) is 95 % of control and the T/C (dose: 12.0 mg/kg/injection, schedule: Q01DX Z (ip), vehicle: saline) was 97 % of control.

In the case of `COc1c2c(c(OC)c3ccccc13)C(=O)c1ccccc1C2=O`, the T/C is, setting by setting: (dose: 50.0 mg/kg/injection, schedule: Q01DX005 (ip), vehicle: saline) 94 % of control; (dose: 100.0 mg/kg/injection, schedule: Q01DX005 (ip), vehicle: saline) 91 % of control; (dose: 200.0 mg/kg/injection, schedule: Q01DX005 (ip), vehicle: saline) 91 % of control.

On to `C/C(CN(C)C)=N\O`, for which the T/C is 101 % of control (dose: 100.0 mg/kg/injection, schedule: Q04DX002 (ip), vehicle: saline); 99 % of control (dose: 200.0 mg/kg/injection, schedule: Q04DX002 (ip), vehicle: saline); 92 % of control (dose: 400.0 mg/kg/injection, schedule: Q04DX002 (ip), vehicle: saline).

Turning to `NCCCn1cnc2c(N)ncnc21`, the T/C runs as follows: under setting [4], 94 % of control; (dose: 100.0 mg/kg/injection, schedule: Q04DX003 (ip), vehicle: saline) 91 % of control; (dose: 200.0 mg/kg/injection, schedule: Q04DX003 (ip), vehicle: saline) 98 % of control.

For `CN(C)P1(N)=NP(N)(N(C)C)=NP(N)(N(C)C)=N1` (stereo not given), the T/C reads like this: under setting [4], 98 % of control; (dose: 200.0 mg/kg/injection, schedule: Q01DX009 (ip), vehicle: saline) 95 % of control; (dose: 400.0 mg/kg/injection, schedule: Q01DX009 (ip), vehicle: saline) 93 % of control.

Source of the values: PubChem BioAssay AID248 (DTP/NCI, 2004).
